Like-named read-outs stand apart in the source and are kept apart here.
Experiments:
[1] = Body weight in H-460 xenograft mice (Example 1); type: in vivo, mouse
Experimental: Sizes of the primary tumors were measured through the skin with calipers once per week. Tumor volumes were calculated by the formula V═(W^2*L)/2. Body weight of the mice in each group was also measured once per week during the experimental period. All animals were sacrificed following thirty-two days of treatment. Primary tumors were excised and weighed on an electronic balance. Blood samples were taken during terminal sacrifice and placed in microhematocrit tubes containing EDTA. Complete Blood Counts (CBC) and reticulocyte analysis were performed with the Cell Dyn 3700 analyzer (Abbott Diagnostics), as described by the manufacturer.
Thus, differences in tumor progression as measured by mean tumor volumes could not be attributed to any generalized toxicity or suppression of normal metabolism that might have been detected by changes in body weights.

CDKN1C gene expression = CDKN1C gene expression in MCF7 cells; type: cell-based; conditions: Homo sapiens, MCF7, read-out: fold-increase in CDKN1C mRNA expression
Experimental: (§1) To identify compounds useful in the methods of the present invention, the following studies were performed. The effect of compounds of the present invention on expression of various genes associated with anti-tumor activity (e.g., genes having anti-proliferative activity, genes having pro-apoptotic activity, genes having anti-tumor activity, etc.). In these experiments, the effect of compounds on BNIP3, BNIP3L, NDRG1, CDKN1C, and REDD1/RTP801 gene expression in various types of cultured tumor cells line was examined, including Hep3B cells (human hepatocellular carcinoma), Kelly neuroblastoma cells, and MCF7 cells (human breast cancer)
(§2) The effects of various compounds of the present invention on the expression of genes associated with tumor growth and progression were examined in MCF7 breast cancer cells as follows. In some experiments, MCF7 (ATCC) cells were plated in 96-well tissue culture dishes (approximately 20,000 cells per well) and cultured in DMEM media supplemented with 10% serum. The following day, the cells were washed and the media was replaced with DMEM containing 0.5% FBS. Various compounds of the present invention were added to the cultured cells to a final concentration of 20 μM, and the cells cultured for an additional 20-24 hours. DMSO (0.5%) was added to control cell cultures. RNA was isolated as described above. Changes in gene expression levels are presented as fold change compared to that of control (0.5% DMSO-treated) cultures.

BNIP3 gene expression [2] = assay: In vivo BNIP3 gene expression in Swiss Webster mice (quantitative PCR); conditions: Mus musculus, iv, 4 h, single 60 mg/kg i.v. dose, four hours after administration, normalized to 18S
Experimental: (§3) The effects of various compounds of the present invention on the expression of genes associated with tumor growth and progression (e.g., expression of genes associated with anti-proliferative effects) were examined in vivo as follows. In these studies, male Swiss Webster mice (25 g) were administered a single intravenous (i.v.) dose of various compounds (60 mg/kg) of the present invention via the tail vein. Four hours after administration of compound, the kidneys and liver were removed and preserved in RNAlater (Ambion). RNA isolation and cDNA synthesis was carried out as follows. Murine kidney tissue was added to TRIzol (Invitrogen) and homogenized using a 5-mm stainless steel bead for 4 minutes at 25 Hz in a Mixer Mill 300 (Qiagen). Homogenates were extracted with chloroform according to the manufacturer's instructions and aqueous supernatants were isolated. The aqueous supernatants were combined with equal volumes of 70% ethanol and then loaded onto RNeasy Mini spin columns (Qiagen). RNA was isolated according to the manufacturer's instructions.
(§4) Synthesis of cDNA from the isolated total RNA was carried out using Omniscript reverse transcriptase (Qiagen) and random primers according to the manufacturer's instructions. Measurement of gene expression levels in compound-treated animals and in vehicle-treated control animals was performed by quantitative PCR using TaqMan Universal PCR Master Mix (Applied Biosystems) and TaqMan Assay-on-Demand assays (Applied Biosystems) in a Prism 7000 system instrument (Applied Biosystems), according to manufacturer's instructions. The assays used were as follows: 18S ribosomal RNA, Hs99999901_s1; BNIP3, Mm00833810_g1; BNIP3L, Mm00786306_s1; NDRG1, Mm00440447_m1. Each PCR amplification reaction included a standard curve and a water blank. Data for gene expression levels for BNIP3, BNIP3L, and NDRG1 were normalized to that of 18S ribosomal RNA within each sample. Data is presented as fold change in specific mRNA levels relative to that of non-treated control animals.

BNIP3 gene expression [3] = assay: BNIP3 gene expression in MCF7 cells; type: cell-based; conditions: Homo sapiens, MCF7, read-out: fold-increase in BNIP3 mRNA expression
Experimental: as §1, §2
In other experiments, MCF7 cells were plated in 96-well tissue culture dishes as described above. After 24 hours, the cells were washed and the media was replaced with DMEM containing 0.5% FBS. Various compounds of the present invention were added to the cultured cells to a final concentration of 20 μM. DMSO (0.5%) was added to control cell cultures. After 24 hours, changes in gene expression of BNIP3 and 18S RNA were determined directly using one-step quantitative multiplex RT-PCR reactions according to the manufacturer's instructions (QuantiTect Multiplex RT-PCR Kit, Qiagen, catalog no. 204643). Changes in gene expression levels are presented as fold change compared to that of control (0.5% DMSO-treated) cultures.

NDRG1 gene expression = assay: In vivo NDRG1 gene expression in Swiss Webster mice (quantitative PCR); conditions: Mus musculus, iv, 4 h, read-out: fold change in NDRG1 mRNA level
Experimental: as §3, §4

[4] = read-out: fold change in BNIP3 mRNA level, kidney
[5] = read-out: fold change in BNIP3 mRNA level, liver

Structure (SMILES)	mean animal body weight ([1]; day 0, 20 mg/kg PO)	mean animal body weight ([1]; day 0, 60 mg/kg PO)	mean animal body weight ([1]; day 10, 20 mg/kg PO)	mean animal body weight ([1]; day 10, 60 mg/kg PO)	mean animal body weight ([1]; day 17, 20 mg/kg PO)	mean animal body weight ([1]; day 17, 60 mg/kg PO)	mean animal body weight ([1]; day 24, 20 mg/kg PO)	mean animal body weight ([1]; day 24, 60 mg/kg PO)	mean animal body weight ([1]; day 31, 20 mg/kg PO)	mean animal body weight ([1]; day 31, 60 mg/kg PO)	mean animal body weight ([1]; day 0, 6 mg/kg PO)	mean animal body weight ([1]; day 10, 6 mg/kg PO)	mean animal body weight ([1]; day 17, 6 mg/kg PO)	mean animal body weight ([1]; day 24, 6 mg/kg PO)	mean animal body weight ([1]; day 31, 6 mg/kg PO)	fold induction at 20 µM (CDKN1C gene expression)	fold induction at 60 mg/kg (BNIP3 gene expression [2]; [4])	fold induction at 20 µM (BNIP3 gene expression [3])	fold induction at 60 mg/kg (NDRG1 gene expression)	fold induction at 60 mg/kg (BNIP3 gene expression [2]; [5])
O=C(O)CNC(=O)c1nc(Cl)c2ccccc2c1O [Compound A, [(1-Chloro-4-hydroxy-isoquinoline-3-carbonyl)-amino]-acetic acid]	25.2 grams	24.5 grams	30.1 grams	30.0 grams	30.5 grams	30.5 grams	30.6 grams	30.6 grams	30.3 grams	29.9 grams	–	–	–	–	–	–	–	–	–	–
C[C@H](NC(=O)c1ncc2cc(Oc3ccccc3)ccc2c1O)C(=O)O [Compound B, (S)-2-[(4-Hydroxy-7-phenoxy-isoquinoline-3-carbonyl)-amino]-propionic acid]	25.7 grams	–	27.8 grams	–	29.0 grams	–	29.3 grams	–	29.3 grams	–	26.3 grams	27.9 grams	29.1 grams	29.3 grams	29.3 grams	0.5	2.1	4.5	0.9	–
COc1ccc(Oc2ccc3c(O)c(C(=O)NCC(=O)O)ncc3c2)cc1 [Compound C, {[4-Hydroxy-7-(4-methoxy-phenoxy)-isoquinoline-3-carbonyl]-amino}-acetic acid]	25.7 grams	–	29.4 grams	–	29.9 grams	–	31.0 grams	–	30.9 grams	–	–	–	–	–	–	0.6	1.5	5	1	3.5
Cc1nc(C(=O)NCC(=O)O)c(O)c2ccc(Oc3ccccc3)cc12 [Compound D, [(4-Hydroxy-1-methyl-7-phenoxy-isoquinoline-3-carbonyl)-amino]-acetic acid]	–	–	–	–	–	–	–	–	–	–	–	–	–	–	–	–	5.8	–	3.6	1.5
O=C(O)CNC(=O)c1ncc2cc(Oc3ccc(F)cc3)ccc2c1O [Compound E, {[7-(4-fluoro-phenoxy)-4-hydroxy-isoquinoline-3-carbonyl]-amino}-acetic acid]	–	–	–	–	–	–	–	–	–	–	–	–	–	–	–	0.4	2.1	5.3	1.8	1.8

From US8530404B2, “Compounds and methods for treatment of cancer” (FibroGen, Inc., priority 2005, dated 2013)
